Data published in US20230330109A1, “COMPOUND FOR PREVENTING AND TREATING LIVER DISEASES AND PHARMACEUTICAL USE THEREOF” (CHENGDU BIOBEL COMPANY LIMITED, priority 2020, published 2023).
Where a name gives a salt, the structure may show the parent alone.

What was measured:
Format in all cases: in vivo
male C57BL/6N mice [1] = experiment: Liver histopathological examination in MCD diet FLD mice (Experimental Example 1); parameters: scale not given here; conditions: liver histopathology, dosage 300 mg/kg (I-1, HTD1801) or 150 mg/kg (nor-UDCA, berberine hydrochloride)
Text: (§1) 48 male C57BL/6N mice (8-week-old) were chosen, in which 8 mice were randomly divided into the blank group, fed with normal diet, while the other 40 mice were all subjected to establishing models. There was an adaptation period of 6 days before modeling. Then, mice were fed with the mixture of MCD and MCS (TROPHIC Animal Feed High-Tech Co. Ltd, Nantong, Jiangsu, China, TP3005GS, high-fat feed) in a ratio of 1:2, 1:1 and 2:1, and each ratio of diet was given to the mice for two days in the order of 1:2, 1:1 and 2:1. After that, mice were given MCD feed for 28 days (TROPHIC Animal Feed High-Tech Co. Ltd, Nantong, Jiangsu, China, TP3005G, methionine- and choline-deficient diet). On the 28th day, mice were randomly divided into five groups, namely model group, compound I-1 group, norUDCA group, berberine hydrochloride group, and HTD1801 group, eight mice for each group. After grouping, each treatment group was further fed customized MCD diet containing drugs for 20 days, while the model group was fed the same diet as the previous. All groups were fed the isocaloric diet. After the last administration on the 21st day, the mice were fasted for 16 h (but free access to water) and weighed. Then, blood was taken from the femoral artery and centrifuged to separate the serum, which was stored at low temperature of −30° C., ready for testing the biochemical indexes of the serum. In addition, the liver was taken, and two pieces of left lobe were taken for each mouse, which were placed in 10% neutral formalin solution, respectively. After treatment, liver histopathological examination was performed.

male C57BL/6N mice [2] = experiment: Serum biochemical indexes in MCD diet FLD mice (Experimental Example 1); parameters: AST / ALT / ALP: unit not given here; conditions: for decrease rate of ALP / decrease rate of ALT / decrease rate of AST: compared with the model group, dosages as in Table 1; for ALP / ALT / AST: serum, MCD diet mice, drug in diet for 20 days, dosage 300 mg/kg/d (I-1, HTD1801) or 150 mg/kg/d (nor-UDCA, berberine hydrochloride)
Text: as §1

male C57BL/6N mice [3] = experiment: Hepatic fat staining in MCD diet FLD mice (Experimental Example 1); conditions: dosage 300 mg/kg (I-1, HTD1801) or 150 mg/kg (nor-UDCA, berberine hydrochloride)
Text: as §1

male Wistar rats = experiment: Thioacetamide-induced hepatic fibrosis/cirrhosis in rats, Sirius Red fibrosis area; conditions: for decrease rate of fibrosis area: compared with the rat cirrhosis model group, dosages as in Table 4; for Hepatic fibrosis area (%): thioacetamide rats, oral, Sirius Red, dosage 160 mg/kg (I-1, HTD1801) or 80 mg/kg (nor-UDCA, berberine hydrochloride)
Text: 60 male Wistar rats (weighing 180-220 g) were divided into 6 groups, with 10 rats in each group, and the rats were provided by Chengdu Dossy Experimental Animal Co., Ltd. In the experiment, the compound of the present invention and the positive control drug nor-UDCA were first ground in a proper amount of Tween, and then diluted to the pre-determined concentration with 0.5% carboxymethyl cellulose (CMC) sodium.
The rat liver fibrosis model was established by inducing with thioacetamide. Rats were intraperitoneally injected with thioacetamide at a dose of 200 mg/kg, three times a week, for 12 weeks. Four weeks after induction with thioacetamide, the compound of the present invention was orally administered to the test groups, while the blank group and the model group were given the same amount of CMC suspension. Among them, every morning, rats in each test group were given 160 mg/kg of compound I-1, 80 mg/kg of nor-UDCA, 80 mg/kg of berberine hydrochloride, and 160 mg/kg of positive control HTD1801. After experiment, all rats were euthanized, and their livers were taken out.
The liver tissue was fixed with 10% formaldehyde solution and embedded in paraffin. The fixed liver tissue was sectioned with a thickness of about […], and then stained with Hematoxylin-Eosin (HE) and Sirius Red. Sirius Red staining was used for morphological analysis and to determine the percentage of liver tissue affected by its fibrosis. The image of the section was collected by using the microscopic imaging system. In order to make the results more accurate, 15 positive visual fields of Sirius Red staining were randomly selected from each slice to calculate the proportion of liver fibrosis area, which was used in statistical analysis.

| SMILES | Score Edema (male C57BL/6N mice [1]) | Score Inflammation cell infiltration (male C57BL/6N mice [1]) | Score Necrosis (male C57BL/6N mice [1]) | Score Steatosis (male C57BL/6N mice [1]) | decrease rate of ALP (male C57BL/6N mice [2]) [%] | decrease rate of ALT (male C57BL/6N mice [2]) [%] | decrease rate of AST (male C57BL/6N mice [2]) [%] | ALP (male C57BL/6N mice [2]) | ALT (male C57BL/6N mice [2]) | AST (male C57BL/6N mice [2]) | Hepatic fat staining Scores (male C57BL/6N mice [3]) | decrease rate of fibrosis area (male Wistar rats) [%] | Hepatic fibrosis area (%) (male Wistar rats) |
| --- | --- | --- | --- | --- | --- | --- | --- | --- | --- | --- | --- | --- | --- |
| COc1ccc2cc3[n+](cc2c1OC)CCc1cc2c(cc1-3)OCO2 [Berberine hydrochloride, berberine hydrochloride] | 1.8 | 1.9 | 2.1 | 2.2 | 15.10 | 12.09 | 1.86 | 193.4 ± 32.9 | 942.4 ± 64.5 | 768.4 ± 38.1 | 1.9 | 15.17 | 15.14 ± 3.67 |
| C[C@H](CC(=O)O)[C@H]1CC[C@H]2[C@@H]3[C@@H](O)C[C@@H]4C[C@H](O)CC[C@]4(C)[C@H]3CC[C@]12C [nor-UDCA, norursodeoxycholic acid] | 1.6 | 2.1 | 2.0 | 2.5 | 12.95 | 21.82 | 20.67 | 198.3 ± 94.5 | 761.8 ± 374.2 | 683.4 ± 253.7 | 1.7 | 6.18 | 16.79 ± 5.48 |
| COc1ccc2cc3[n+](cc2c1OC)CCc1cc2c(cc1-3)OCO2.C[C@H](CCC(=O)[O-])[C@H]1CC[C@H]2[C@@H]3[C@@H](O)C[C@@H]4C[C@H](O)CC[C@]4(C)[C@H]3CC[C@]12C [HTD1801] | 0.7 | 1.3 | 0.8 | 1.3 |  |  |  | 188.8 ± 21.3 | 303.0 ± 99.1 | 409.9 ± 51.7 | 1.1 |  | 9.39 ± 1.45 |
